Laboratory results: ChEMBL document CHEMBL1147956 (Bioorg Med Chem Lett, 2007)

Molecular target: T1, Inhibitor of nuclear factor kappa-B kinase subunit beta (Homo sapiens, UniProt O14920)
T1 sequence (O14920 whole entry): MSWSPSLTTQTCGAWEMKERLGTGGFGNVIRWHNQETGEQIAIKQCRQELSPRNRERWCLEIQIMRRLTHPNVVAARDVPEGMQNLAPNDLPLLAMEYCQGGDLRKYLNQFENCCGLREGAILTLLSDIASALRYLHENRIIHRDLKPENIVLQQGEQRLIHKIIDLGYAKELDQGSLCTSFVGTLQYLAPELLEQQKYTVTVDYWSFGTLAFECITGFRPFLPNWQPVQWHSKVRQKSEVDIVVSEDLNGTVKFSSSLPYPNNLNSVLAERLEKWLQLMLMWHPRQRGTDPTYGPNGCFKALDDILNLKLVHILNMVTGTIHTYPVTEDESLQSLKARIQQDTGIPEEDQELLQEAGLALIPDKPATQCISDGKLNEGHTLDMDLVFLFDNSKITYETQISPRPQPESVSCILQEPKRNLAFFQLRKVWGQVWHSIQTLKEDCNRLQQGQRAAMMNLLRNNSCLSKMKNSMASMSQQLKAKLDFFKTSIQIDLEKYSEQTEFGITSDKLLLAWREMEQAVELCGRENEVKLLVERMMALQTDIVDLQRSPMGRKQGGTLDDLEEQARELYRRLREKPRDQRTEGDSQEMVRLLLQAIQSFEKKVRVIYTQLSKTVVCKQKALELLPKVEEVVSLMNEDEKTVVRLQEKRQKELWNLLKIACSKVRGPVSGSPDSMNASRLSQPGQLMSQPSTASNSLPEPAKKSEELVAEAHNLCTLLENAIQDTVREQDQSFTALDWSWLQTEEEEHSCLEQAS
Assay: Inhibition of IKK-beta after 30 mins

- IC50: 400 nM
SMILES: Cc1cc(-c2c3ccccc3c(Br)c3sc(C)c(C)c23)cc(C)c1O[C@H](Cc1ccccc1)C(=O)O [ERTIPROTAFIB]
